Laboratory results from US5622960A, “Topoisomerase II inhibitors and therapeutic uses therefor” (The United States of America as represented by the …, priority 1992, dated 1997).

Legend:
Topoisomerase II = experiment: topoisomerase II inhibition: drug-induced DNA cleavage in presence of HL-60 extract or purified top 2; assay type: biochemical; details: for top 2 inhibition / top 2 activity (in words): DNA cleavage assays; for Topoisomerase II inhibition: class symbols without legend, HL-60 extract or purified top 2; for effect of hydroxyl substitution on top 2 activity: 1 versus 6, DMDP versus DMEP
Source text: Because the azatoxin skeleton is synthetically accessible, a large number of derivatives are readily prepared and screened for top 2 inhibitory activity in accordance with the present invention. Such screening can be effected by means of an in vitro assay which employs purified top 2 and ^32 P-end-labelled DNA. In such an assay, top 2 inhibition by a test substance results in DNA fragmentation which can be detected by agarose gel electrophoresis, as described by Fesen and Pommier, J. Biol. Chem. 19:11354-59 (1989); by the filter-binding assay described by Pommier et al., Biochem. 24:6410-16 (1985); or by the sodium dodecylsulfate precipitation assay employed by Nelson et al., Proc. Nat'l Acad. Sci. USA81: 1361-65 (1984).
(§1) Chemicals, and enzymes: Azatoxin and its derivatives, as well as the demethyldesoxypodophyllotoxin (DMDP) and demethylepipodophyllotoxin (DMEP), were synthesized by conventional methods. The compounds m-AMSA and mitoxantrone were obtained from the Drug Synthesis and Chemistry Branch, National Cancer Institute, Bethesda, Md. The compounds VP-16 and VM-26 were obtained from Bristol-Myers Company (Wallingford, Conn.). Drug stock solutions were made in dimethylsulfoxide at 10 mM. Further dilutions were made in distilled water. Various other reagents, including simian virus 40 (SV40) and c-myc human DNA inserts in plasmid pBR322, restriction endonucleases, DNA topoisomerase I, T4 polynucleotide kinase, calf intestine phosphatase, agarose and polyacrylamide/bis, were purchased from Bethesda Research Laboratories (Gaithersburg, Md.), from the American Type Culture Collection (Rockville, Md.) or from New England Biolabs (Beverly, Mass.). [Gamma-^32 P]ATP was purchased from New England Nuclear Research Products (Boston, Mass.).
(§2) DNA topoisomerase II was purified from mouse leukemia L1210 cell nuclei as described, for example, by Pommier et al. (1985), supra, and was stored at -70° C. in 40% (v/v) glycerol, 0.35 M NaCl, 5 mM MgCl2, 1 mM KH2 PO4, 0.2 mM dithiothreitol and 0.1 mM phenylmethanesulfonyl fluoride (pH 6.4). The purified enzyme yielded a single 170 kDa band after silver staining of SDS-polyacrylamide gels, in accordance with the description of Pommier et al., Cancer Res. 46: 3075-81 (1986).
(§3) Preparation of end-labeled DNA fragments: DNA fragments were 5' end-labeled as described, for example, by Fesen and Pommier (1989), supra. Briefly, native DNA was first linearized with a restriction enzyme, […] then the 5'-DNA termini were dephosphorylated with calf alkaline phosphatase and labeled with [gamma-^32 P]ATP using T4 polynucleotide kinase. For double-strand breaks assays using HL-60 nuclear extract, SV40 DNA was digested with BclI endonuclease and labeled at both DNA termini. For sequencing experiments, SV40 and c-myc DNAs were first 5'-end labeled at the XhoII and XbaI restriction sites, respectively. Then, in order to generate uniquely 5'-end-labeled fragments, labeled DNA was subjected to a second enzyme digestion, PflMI for SV40, and EcoRI plus HindIII for c-myc DNA. The resulting DNA fragments were separated by agarose gel electrophoresis and isolated by electroelution. Purification by phenol-chloroform extraction and ethanol precipitation were included between each step and at the end of the labeling procedures, pursuant to Pommier et al., J. Molec. Biol. 222: 909-24 (1991).
Topoisomerase II-induced DNA cleavage reactions: DNA fragments were equilibrated with or without drug in 10 mM Tris-HCl, pH 7.5, 50 mM KCl, 5 mM MgCl2 0.1 mM EDTA, 1 mM ATP and 15 μg/ml bovine serum albumin for 5 minutes before addition of purified topoisomerase II (40 to 70 ng) or HL-60 nuclear extract in 20 μl final reaction volume. Reactions were stopped by adding sodium dodecyl sulfate (SDS) to a final concentration of 1% and proteinase K to 400 μg/ml, followed by incubation for 1 hour at 40° C. […]

SV40 DNA = experiment: DNA unwinding (intercalation) assay with excess topoisomerase I; assay type: biochemical, simian virus 40; details: relaxed SV40 DNA, excess topoisomerase I; concentrations as high as 1 mM
Description: To assess DNA unwinding, see Pommier et al., Nucleic Acids Res. 15: 6713-31(1987), the DNA was relaxed first by treatment for 15 minutes with top 1 (20 units), after which the test agent was added. These steps were carried out at 37° C. DNA-agent-top 1 mixtures were incubated for an additional 30 minutes and then stopped as described above. Samples were then subjected to agarose gel electrophoresis as described above.
This was also the case for the 2 azatoxin isomers, 8 and 10, and for the demethylepipodophyllotoxins, DMDP and DMEP. Similar results were obtained with supercoiled DNA.

[1] = molecular target: T1, purified murine leukemia top 2 (Mus musculus, UniProt Q01320); experiment: Sequencing of topoisomerase II cleavage sites (SV40 and c-myc DNA); assay type: biochemical
T1 construct: single 170 kDa band on silver-stained SDS-PAGE
Description: as §1, §2, §3
Topoisomerase II-induced DNA cleavage reactions: DNA fragments were equilibrated with or without drug in 10 mM Tris-HCl, pH 7.5, 50 mM KCl, 5 mM MgCl2 0.1 mM EDTA, 1 mM ATP and 15 μg/ml bovine serum albumin for 5 minutes before addition of purified topoisomerase II (40 to 70 ng) or HL-60 nuclear extract in 20 μl final reaction volume. Reactions were stopped by adding sodium dodecyl sulfate (SDS) to a final concentration of 1% and proteinase K to 400 μg/ml, followed by incubation for 1 hour at 40° C.
For DNA sequence analysis, samples were precipitated with ethanol and resuspended in 2.5 μl loading buffer (80% formamide, 10 mM NaOH, 1 mM EDTA, 0.1% xylene cyanol and 0.1% bromophenol blue). Samples were heated to 90° C. and immediately loaded into DNA sequencing gels (6% polyacrylamide; 19:1, acrylamide:bis) containing 7M urea in (1×) TBE buffer. Electrophoresis was at 2500 V (60 W) for 4 hours. Gels were dried on 3M paper sheets and autoradiographed with Kodak XAR-2 film. See Pommier et al. (1991), supra.
Induction of top 2 cleavage by azatoxin was tested directly with the use of purified murine leukemia top 2. […] Sites of cleavage were also determined by DNA sequencing in the 5' flank of c-myc first intron.

[2] = system: top 2 (HL-60 nuclear extract); experiment: Induction of DNA double-strand breaks in SV40 DNA in presence of HL-60 nuclear extract; assay type: biochemical; details: up to 1 mM
Description: as §1
as §3, with “Purification by phenol-chloroform extraction and ethanol precipitation were included between each step and at the end of the labeling procedures, pursuant to Pommier et al., J. Molec. Biol. 222: 909-24 (1991).” left out
For agarose gel analysis, 3 μl (10×) loading buffer (0.3% bromophenol blue, 16% Ficoll, 10 mM Na2 HPO4) was added to each sample which was then heated at 65° C. for 1-2 minutes before loading into an agarose gel made in (1×) TBE (89 mM Tris, 89 mM boric acid, 2 mM EDTA, pH8), in accordance with Fesen & Pommier (1989), supra. […] The quantification of drug-induced DNA double-strand breaks in the presence of HL-60 nuclear extract was effected as described in the next paragraph.
Radioactive gels were counted in betascope 603 blot analyzer. […] Drug-induced cleavage was expressed as: [formula] where C. and T. are the counts for cleaved and total DNA, respectively, in presence of nuclear extract without drug.
Drug-induced DNA double-strand breaks were measured first in SV40 DNA in the presence of HL-60 nuclear extracts. […]

T1 sequence (Q01320 whole entry): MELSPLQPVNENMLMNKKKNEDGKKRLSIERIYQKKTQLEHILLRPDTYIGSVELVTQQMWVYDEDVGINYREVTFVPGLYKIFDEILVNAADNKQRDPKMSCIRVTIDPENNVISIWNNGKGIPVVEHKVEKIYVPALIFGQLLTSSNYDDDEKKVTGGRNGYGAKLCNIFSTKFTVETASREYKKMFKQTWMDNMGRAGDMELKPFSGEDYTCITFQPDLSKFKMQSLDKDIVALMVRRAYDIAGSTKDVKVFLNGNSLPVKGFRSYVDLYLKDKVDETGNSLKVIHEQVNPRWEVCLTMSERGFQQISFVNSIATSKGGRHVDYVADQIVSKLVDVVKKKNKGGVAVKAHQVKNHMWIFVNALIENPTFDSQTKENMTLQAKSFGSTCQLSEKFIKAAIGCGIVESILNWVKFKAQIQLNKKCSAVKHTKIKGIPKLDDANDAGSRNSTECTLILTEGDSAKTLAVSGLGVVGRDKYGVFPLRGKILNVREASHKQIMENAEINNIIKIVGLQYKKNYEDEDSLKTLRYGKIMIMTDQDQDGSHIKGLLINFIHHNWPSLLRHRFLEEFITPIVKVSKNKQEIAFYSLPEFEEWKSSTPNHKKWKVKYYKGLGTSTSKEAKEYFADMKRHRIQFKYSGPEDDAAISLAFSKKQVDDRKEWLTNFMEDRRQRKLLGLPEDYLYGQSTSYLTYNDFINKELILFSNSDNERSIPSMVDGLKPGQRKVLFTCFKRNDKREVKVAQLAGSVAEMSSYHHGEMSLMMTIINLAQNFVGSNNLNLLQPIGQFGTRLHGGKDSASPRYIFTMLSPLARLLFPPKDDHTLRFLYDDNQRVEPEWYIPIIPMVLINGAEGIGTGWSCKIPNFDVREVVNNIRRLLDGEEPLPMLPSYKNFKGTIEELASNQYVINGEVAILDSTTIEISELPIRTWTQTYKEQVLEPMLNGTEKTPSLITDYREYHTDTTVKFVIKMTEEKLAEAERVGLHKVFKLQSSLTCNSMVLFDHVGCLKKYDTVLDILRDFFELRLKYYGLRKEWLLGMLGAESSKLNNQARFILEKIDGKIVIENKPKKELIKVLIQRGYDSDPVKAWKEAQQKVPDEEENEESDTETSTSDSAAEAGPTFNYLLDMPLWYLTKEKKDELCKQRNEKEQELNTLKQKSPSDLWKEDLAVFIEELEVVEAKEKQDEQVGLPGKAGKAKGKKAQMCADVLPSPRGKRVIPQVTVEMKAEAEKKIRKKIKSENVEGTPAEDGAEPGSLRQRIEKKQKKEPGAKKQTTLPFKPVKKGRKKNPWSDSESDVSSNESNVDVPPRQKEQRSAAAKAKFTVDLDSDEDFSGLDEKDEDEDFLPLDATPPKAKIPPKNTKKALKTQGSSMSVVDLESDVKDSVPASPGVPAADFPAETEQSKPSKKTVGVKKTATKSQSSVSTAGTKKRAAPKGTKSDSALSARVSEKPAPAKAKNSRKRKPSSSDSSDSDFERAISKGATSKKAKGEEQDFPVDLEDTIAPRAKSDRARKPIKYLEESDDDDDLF

Row | SMILES | top 2 inhibition / top 2 activity (in words) (Topoisomerase II) | Topoisomerase II inhibition (Topoisomerase II) | DNA unwinding (SV40 DNA) | further results
1 | COc1cc([C@@H]2C3=C(C[C@H]4COC(=O)N42)c2cccc4cccc3c24)cc(OC)c1O (relative stereo) [Compound 7, 5,11a-trans-3-one-5,4, 11, 11a-tetrahydro-5-(3,5-dimethoxy-4-hydroxyphenyl)-1H, 10H-oxazol [3', 4':1,6]pyrido[1,2-b]acenapthylene] | inactive | .largecircle. |  | 
2 | COc1cc([C@@H]2c3c([nH]c4ccccc34)C[C@H]3COC(=O)N32)cc(OC)c1O (relative stereo) [Compound 8] | inactivity | .largecircle. | did not induce detectable DNA unwinding even at drug concentrations as high as 1 mM | 
3 | COc1cc([C@@H]2c3[nH]c4ccccc4c3C[C@H]3COC(=O)N32)ccc1O [Compound 2, 5R, 11aS-3-One-5,4,11,11a-tetrahydro-5-(3-methoxy-4-hydroxyphenyl)-1H, 6H-oxazolo[3', 4': 1.6]pyrido[3,4-b]indole] |  | .smallcircle. |  | factor of reduction of top 2 activity by monodemethoxylation of pendant ring (Topoisomerase II; versus azatoxin): 10
4 | O=C1OC[C@@H]2Cc3c([nH]c4ccccc34)[C@@H](c3ccc(O)cc3)N12 [Compound 3, 5R, 11aS-3-one-5,4,11,11a-tetrahydro-5-(4-hydroxyphenyl)-1H, 6H-oxazolo[3',4':1,6]pyrido[3,4-b]indole] | abolished the top 2 activity | .largecircle. |  | 
5 | COc1cc([C@@H]2c3[nH]c4ccccc4c3C[C@H]3COC(=O)N32)cc(OC)c1OC [Compound 4, 5R,11aS-3-one-5,4,11,11a,tetrahydro-5-(3,4,5-trimethoxyphenyl)-1H, 6H-oxazolo[3',4':1,6]pyrido[3,4-b]indole] |  | .largecircle. |  | 
6 | CS(=O)(=O)Nc1ccc([C@@H]2c3[nH]c4ccccc4c3C[C@H]3COC(=O)N32)cc1 [Compound 5] |  | .largecircle. |  | 
7 | COc1cc([C@@H]2c3[nH]c4ccccc4c3[C@@H](O)[C@H]3COC(=O)N23)cc(OC)c1O [Compound 6, 5R,11R,11aS-3-One-11-hydroxy-5,4,11,11a-tetrahydro-5-(3,5-dimethoxy-4-hydroxyphenyl)-1H, 6H-oxazolo[3'4:1,6]pyrido[3,4-b]indole] | measurable but not strong top 2 activity |  |  | effect of hydroxyl substitution on top 2 activity (Topoisomerase II): significantly decreases top 2 activity
8 | COc1cc([C@@H]2c3[nH]c4ccccc4c3C[C@@H]3COC(=O)N32)cc(OC)c1O [Compound 9, 5R,11aR-3-One-5,4,11,11a-tetrahydro-5-(3,5-dimethoxy-4-hydroxyphenyl)-1H, 6H-oxazolo[3'4':1,6']pyrido[3,4-b]indole] | inactive | .largecircle. |  | 
9 | COc1cc([C@H]2c3[nH]c4ccccc4c3C[C@H]3COC(=O)N32)cc(OC)c1O [Compound 10, 5S, 11aS-3-One-5,4,11,11a-tetrahydro-5-(3,5-dimethoxy-4-hydroxyphenyl)-1H, GH-oxazolo[3'4':1,6]pyrido[3,4-b]indole] | inactive | .largecircle. | did not induce detectable DNA unwinding even at drug concentrations as high as 1 mM | 
10 | COc1cc([C@@H]2c3cc4c(cc3C[C@H]3COC(=O)[C@@H]32)OCO4)cc(OC)c1O [DMDP, 4'-demethyl-4-desoxypodophyllotoxin, reference compound] |  |  | did not induce detectable DNA unwinding even at drug concentrations as high as 1 mM | top 2 cleavage sites induced (number/amount) ([1]; SV40 and c-myc DNA, purified murine top 2): induced less cleavage that azatoxin; top 2 cleavage pattern ([1]; compared with other top 2 inhibitors): at distinct cleavages sites
11 | COc1cc([C@@H]2c3cc4c(cc3[C@@H](O)[C@H]3COC(=O)[C@H]23)OCO4)cc(OC)c1O [DMEP, 4'-demethylepipodophyllotoxin, reference compound] |  |  | did not induce detectable DNA unwinding even at drug concentrations as high as 1 mM | effect of hydroxyl substitution on top 2 activity (Topoisomerase II): increases activity; top 2 cleavage potency (in words) [1]: at least as potent as VP-16
12 | COc1cc([C@@H]2c3cc4c(cc3[C@@H](O[C@@H]3O[C@@H]5CO[C@@H](C)O[C@H]5[C@H](O)[C@H]3O)[C@H]3COC(=O)[C@H]23)OCO4)cc(OC)c1O [VP-16, etoposide, reference compound] |  |  |  | suppression of DNA cleavage at high drug concentrations [2]: not suppressed at high drug concentrations (up to 1 mM)
